From US7700644B2, “Isoflavonoid dimers” (Novogen Research Pty Ltd, priority 2005, dated 2010)

What was measured:
HT-29 (Colorectal) cells = assay: Chemosensitisation, combination with antineoplastic agent, HT-29; format: cell-based, human; conditions: for synergy with Paclitaxel: Cpd. 2 1 μM and 2 μM
Method: (§1) The utility of the dimeric compounds of the invention to act as a chemosensitiser when used in combination with an array of standard chemotherapeutic agents was assessed. Dimeric Cpd. 2 was applied to various colorectal and pancreatic cancer cell lines to investigate its synergy with standard chemotherapeutic agents including cisplatin, gemcitabine, paclitaxel, doxorubicin, camptothecin and topotecan.
(§2) The experiment as outlined in SOP-BD011 (Versions A and B) was used to screen three antineoplastic agents against a given cell line in any ‘one’ experiment (see for example Kanzawa et al., (1997)). The inherent design of the experiment allowed for three sequences of Cpd. 2 and an antineoplastic agent. • 1) Direct Sequence—Cells are treated with both Cpd. 2 and a single antineoplastic agent (combined) for 5 days. • 2) Cpd. 2 First (Forward) Sequence—Cells are treated for 24 hours with Cpd. 2 before replacing with a 24 hour antineoplastic agent treatment; drugs are then washed out and processed on Day 5. • 3) Reverse Sequence—The reverse order to experiment No. 2 above. i.e. a cytotoxin first sequence Results and Conclusions
(§3) All data was evaluated using the formulae of theoretic additivity incorporated into a three dimensional model, as described by Kanzawa et al. (1997). This allows for simple data interpretation as values in excess of 10% are defined as ‘synergistic’ (depicted in grey) whilst those below −10% are defined as ‘antagonistic’ (depicted in black).

[1] = system: UV irradiation-induced skin oedema; assay: Murine model of UV irradiation-induced skin oedema; format: in vivo, female Skh:hr-1 albino mice; conditions: for Change in skin thickness (mean ± SD, ×0.01 mm): dorsal skin fold, topical 0.2 ml of 20 μM at 30 min, 2 h, 4 h
From the text: Groups of 4-5 female Skh:hr-1 albino mice were irradiated with 1×3 MEdD (minimal edematous dose) of solar simulated UV radiation (SSUV). Solar-simulated ultraviolet radiation (SSUV) was provided by a planar bank of 6 UVA tube (Hitachi 40W F40T 10/BL, black light) and one UVB tube (Philips TL 40W/12RS) with radiation filtered through a sheet of 0.125 mm cellulose acetate (Eastman Chemical Products, Kingport, Tenn., USA) to give 2.96×10-4W/cm2 UVA and 1.59×10-5W/cm2 UVB. The distance of the UV lamp from the irradiance table surface was approximately 20 cm and temperature was controlled with an electric fan. During irradiation, the cages were rotated below the lights to reduce the variation in radiation intensity in different positions.
Either test compound (0.2 ml of a 20 μM solution) or vehicle (propylene glycol/ethanol/water 1:2:1) was applied to the irradiated dorsal skin at 30 min, 2 h and 4 h post-irradiation. Dorsal skin fold measurements were made with a spring micrometer prior to and at 24 hr and 48 h post-UV exposure. The difference in skin thickness pre- and post-exposure to UVR was calculated for each mouse, and the differences examined between test compound and vehicle control were analysed using an unpaired two-tailed t test.

[2] = system: HCT-15 (Colorectal) cells; assay: Chemosensitisation, combination with antineoplastic agent, HCT-15; format: cell-based, human
Method: as §1, §2, §3

Structure (SMILES): COc1ccc(C23COc4c(ccc(O)c4C)C2C2c4ccc(O)c(C)c4OCC2c2cc(OC)c(OC)cc23)cc1OC (stereo not shown) [Cpd. 2, 4,9-Dihydroxy-14,15-dimethoxy-12a-(3′,4′-dimethoxyphenyl)-3,10-dimethyl-2,11-dioxa-(1H,12H)-6b,6c,12a,16b-tetrahydronaphtho[1,2-g]chrysene]
- synergy with Doxorubicin (HT-29 (Colorectal) cells; Doxorubicin first (C)): no synergy
- synergy with Doxorubicin (HT-29 (Colorectal) cells; combination (A) and forward (B) sequences): strong synergistic cytotoxicity
- synergy with Paclitaxel (HT-29 (Colorectal) cells; combination (A)): strong synergy
- synergy with Gemcitabine (HT-29 (Colorectal) cells; forward (A) and reverse (B) sequences, Cpd. 2 5 μM and 10 μM): synergistic cytotoxicity
- synergy with Paclitaxel (HT-29 (Colorectal) cells; forward (B) and reverse (C) 24 hour sequences): Less significant regions of synergy
- inhibition of skin oedema ([1]; 24 hrs post-irradiation): significantly inhibited
- inhibition of skin oedema ([1]; 48 hrs post-irradiation): significantly inhibited
- Change in skin thickness (mean ± SD, ×0.01 mm) ([1]; 24 hrs post-irradiation, vehicle 78 ± 23): 36 ± 22 ×0.01 mm
- Change in skin thickness (mean ± SD, ×0.01 mm) ([1]; 48 hrs post-irradiation, vehicle 147 ± 37): 105 ± 16 ×0.01 mm
- synergy with Doxorubicin ([2]; combination (A)): strong synergistic cytotoxicity
- synergy with Paclitaxel ([2]; combination treated group (A)): no synergy
- synergy with Paclitaxel ([2]; forward (B) and reverse (C) 24 hour sequences, Cpd. 2 1 μM and 2 μM): strong synergy
- synergy with Doxorubicin ([2]; forward (B) or reverse (C) sequences): No synergy
